{"source": "patent US10280209B2", "about": "(YISSUM RESEARCH DEVELOPMENT COMPANY OF THE HEBREW …, priority 2013, dated 2019)", "key": {"[1]": {"system": "signaling through CD3", "test": "αCD3-induced cytokine expression in human PBMC (ELISA)", "format": "cell-based", "settings": "αCD3 alone, 10 μg/ml peptide", "method": "(§1) Peripheral blood mononuclear cells (PBMC) from healthy human donors were separated on Ficoll Paque (Amersham), washed twice with 50 ml of RPMI 1640 medium, re-suspended at a density of 4×10^6 cells/ml and cultured in this medium supplemented with 2% fetal calf serum, 2 mM glutamine, 10 mM Minimum Essential Medium (MEM) nonspecific amino acids, […], 10 mM Hepes pH 7.2, 5×10^−5 M 2-mercaptoethanol, 100 u/ml penicillin, 100 μg/ml streptomycin and 5 μg/ml nystatin. Mouse anti-human monoclonal antibodies αCD3 (clone UCHT1; 100 ng/ml) and αCD28 (clone 37407; 2.5 μg/ml) (both from R&D Systems) were used as inducers. Cytokines in culture medium were determined with Quantikine ELISA kits (R&D Systems) according to the manufacturer's instructions."}, "[2]": {"system": "human PBMC", "test": "Cytokine induction by peptides alone in human PBMC (ELISA)", "format": "cell-based", "settings": "10 μg/ml peptide, no inducer", "method": "as §1"}, "[3]": {"system": "adjuvant arthritis", "test": "Adjuvant arthritis model", "settings": "rat, in vivo"}, "[4]": {"system": "human IgG", "test": "Surface plasmon resonance, human IgG control on immobilized peptide", "format": "binding", "settings": "SPR, studied in parallel", "method": "Peptides were diluted to 10-200 μg/ml in 10 mM Sodium (Na) acetate pH 4.0 and immobilized on a CM5 sensor chip (BIAcore) using an amine-thiol coupling kit (BIAcore), respectively; the immobilized amounts were 500-1,000 resonance units. Analytes were injected at 20 μl/min in 25 mM HEPES pH 7.4, 150 mM NaCl, 3.4 mM EDTA, and 0.005% surfactant P20 under conditions showing no mass transport limitation. Regeneration was with 50 mM phosphoric acid. Kinetic analyses were performed at 25° C. in a BIAcore 3000 instrument, deducting the signal from the control flow cell from the binding signal. Analyte curves were run in duplicate; representative results are shown. Human IgG (Jackson Laboratories) served as control. Fusion of the IgG1-Fc domain to the 152-amino-acid extracellular domain of CD28 was performed as described below."}, "[5]": {"biological_target": "T1, CD28 (Homo sapiens, UniProt P10747)", "T1 construct": "endogenous in cells; host or cells: human PBMC", "test": "αCD3/αCD28-induced cytokine expression in human PBMC (ELISA)", "format": "cell-based", "settings": "αCD3/αCD28, 10 μg/ml peptide", "method": "as §1"}, "[6]": {"system": "experimental autoimmune encephalitis", "test": "Experimental autoimmune encephalitis (EAE) model", "format": "in vivo, mouse"}, "[7]": {"system": "collagen-induced arthritis", "test": "Collagen-induced arthritis model", "format": "in vivo, mouse", "settings": "mice"}, "[8]": {"biological_target": "T2, staphylococcal enterotoxin B (SEB) (Staphylococcus aureus, UniProt P01552)", "settings": "previously shown (3); cited from earlier work"}, "[9]": {"biological_target": "T2, staphylococcal enterotoxin B (SEB)", "settings": "previously shown (3); cited from earlier work", "remark": "listed apart in the source"}, "[10]": {"settings": "FIG. 11A, daily from day 1, solumedrol 20 mg/kg, p2TB 50 μg, pe12-pal 100 μg"}, "[11]": {"settings": "independent experiment FIG. 11B-D, daily, solumedrol 20 mg/kg, p2TB 50 μg, p2TB-pal 50 μg, pe12-pal 100 μg"}}, "note": "Where “and” joins values, the source holds several entries; their conditions need not be identical. Identical values can stand only once. Square brackets hold non-standard residues; d marks the D form. Ends that are not written are not given here."}
{"compound": "(D-A)SHFTHNRHGHST(D-A) ([dA]SHFTHNRHGHST[dA]) [pe12]", "values": [{"measurement": "αCD3-mediated induction of IFN-γ", "setting": "[1]", "value": "did not inhibit"}, {"measurement": "αCD3-mediated induction of IL2", "setting": "[1]", "value": "did not inhibit"}, {"measurement": "αCD3-mediated induction of TNF-α", "setting": "[1]", "value": "did not inhibit"}, {"measurement": "Th1 cytokine response induced by peptide alone", "setting": "[2]", "value": "do not induce a significant Th1 cytokine response"}, {"measurement": "disease symptoms after termination of therapy on day 15", "setting": "[3]", "value": "leveled off and even showed a progressive further decline"}, {"measurement": "cumulative reduction of disease symptoms", "setting": "[3]; iv", "value": 41, "unit": "%"}, {"measurement": "disease symptoms during treatment, up to day 15", "setting": "[3]; iv", "value": "did not exhibit inhibition of symptoms"}, {"measurement": "affinity for IgG", "setting": "[4]", "value": "none of the peptides showed affinity for IgG"}, {"measurement": "signaling through CD28 (IFN-γ, IL2, TNF-α secretion)", "setting": "[5]", "value": "inhibit signaling through CD28"}]}
{"compound": "(D-A)PAVVLASS(D-A) ([dA]PAVVLASS[dA]) [p2TB, CTLA-4 homodimer interface peptide abutted by D-Ala at both termini]", "values": [{"measurement": "αCD3-mediated induction of IFN-γ", "setting": "[1]", "value": "did not inhibit"}, {"measurement": "αCD3-mediated induction of IL2", "setting": "[1]", "value": "did not inhibit"}, {"measurement": "αCD3-mediated induction of TNF-α", "setting": "[1]", "value": "did not inhibit"}, {"measurement": "Th1 cytokine response induced by peptide alone", "setting": "[2]", "value": "do not induce a significant Th1 cytokine response"}, {"measurement": "affinity for IgG", "setting": "[4]", "value": "none of the peptides showed affinity for IgG"}, {"measurement": "signaling through CD28 (IFN-γ, IL2, TNF-α secretion)", "setting": "[5]", "value": "inhibit signaling through CD28"}]}
{"compound": "C[C@H]1C[C@@H]2[C@H]([C@@H](O)C[C@@]3(C)[C@H]2CC[C@]3(O)C(=O)COC(=O)CCC(=O)O)[C@@]2(C)C=CC(=O)C=C12", "note": "[solumedrol, reference compound]", "values": [{"measurement": "reduction of cumulative clinical score", "setting": "[6]; [10]", "value": 50, "unit": "%"}, {"measurement": "reduction of cumulative clinical score", "setting": "[6]; [11]", "value": 50, "unit": "%"}]}
{"compound": "(palmitoyl-lysine)SHFTHNRHGHST(D-A) (SHFTHNRHGHST[dA]; not fully specified (N-terminus)) [pe12-pal]", "values": [{"measurement": "amelioration of disease symptoms", "setting": "[7]; 150 μg once every 3 days from disease onset", "value": 31, "unit": "%"}, {"measurement": "amelioration of disease symptoms", "setting": "[7]; 200 μg once every 5 days from disease onset", "value": 27, "unit": "%"}, {"measurement": "reduction of cumulative clinical score", "setting": "[6]; [10]", "value": 63, "unit": "%"}, {"measurement": "reduction of cumulative clinical score", "setting": "[6]; [11]", "value": 42, "unit": "%"}, {"measurement": "reduction of cumulative clinical score", "setting": "[6]; independent experiment FIG. 11B-D, once every 3 days, p2TB 100 μg, p2TB-pal 100 μg, pe12-pal 150 μg", "value": 48, "unit": "%"}]}
{"compound": "(palmitoyl-lysine)PAVVLASS(D-A) (PAVVLASS[dA]; not fully specified (N-terminus)) [p2TB-pal]", "values": [{"measurement": "reduction of cumulative disease symptoms", "setting": "[7]; 100 μg once every 3 days starting on day 25", "value": 34, "unit": "%"}, {"measurement": "reduction of cumulative clinical score", "setting": "[6]; mouse, in vivo", "value": "41% and 31% and 38%"}]}
{"compound": "(D-A)ASMDYPVL(D-A) ([dA]ASMDYPVL[dA])", "values": [{"measurement": "ability to protect mice from lethal SEB challenge after scrambling of p2TA sequence", "setting": "[8]", "value": "strongly impair"}, {"measurement": "ability to bind directly to SEB after scrambling of p2TA sequence", "setting": "[9]", "value": "strongly impair"}]}
